In PubChem BioAssay AID1963860 (Molecular Pharmacology Branch, DTP, NCI, 2024):

Tested on: CN0375-F725-PDC KRAS spheroid viability
Assay: Anticancer human tumor CN0375-F725-PDC patient-derived colon carcinoma cell line growth inhibition [KRAS2]
Details: spheroids with HUVEC and MSC; for IC50: curve of first compound; for viability, T/C: stronger effect = lower value
How it was run: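 KRAS-mutant tumor cells were grown as spheroids with HUVEC endothelial cells and human MSCs as stroma. Targeted agents were tested alone and with KRAS pathway inhibitors. Doses started at or near clinical Cmax, or 10 microM, descending half-log.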

[1] = second compound 0.1 µM, first compound 0.0316 µM
[2] = second compound 0.1 µM, first compound 0.1 µM
[3] = second compound 0.1 µM, first compound 0.316 µM
[4] = second compound 0.1 µM, first compound 1 µM
[5] = second compound 0.1 µM, first compound 3.16 µM
[6] = second compound 0.1 µM, first compound 10 µM
[7] = second compound 0.316 µM, first compound 0.0316 µM
[8] = second compound 0.316 µM, first compound 0.1 µM
[9] = second compound 0.316 µM, first compound 0.316 µM
[10] = second compound 0.316 µM, first compound 1 µM
[11] = second compound 0.316 µM, first compound 3.16 µM
[12] = second compound 0.316 µM, first compound 10 µM
[13] = second compound 1 µM, first compound 0.0316 µM
[14] = second compound 1 µM, first compound 0.1 µM
[15] = second compound 1 µM, first compound 0.316 µM
[16] = second compound 1 µM, first compound 1 µM
[17] = second compound 1 µM, first compound 3.16 µM
[18] = second compound 1 µM, first compound 10 µM
[19] = second compound 3.16 µM, first compound 0.0316 µM
[20] = second compound 3.16 µM, first compound 0.1 µM
[21] = second compound 3.16 µM, first compound 0.316 µM
[22] = second compound 3.16 µM, first compound 1 µM
[23] = second compound 3.16 µM, first compound 3.16 µM
[24] = second compound 3.16 µM, first compound 10 µM
[25] = second compound 10 µM, first compound 0.0316 µM
[26] = second compound 10 µM, first compound 0.1 µM
[27] = second compound 10 µM, first compound 0.316 µM
[28] = second compound 10 µM, first compound 1 µM
[29] = second compound 10 µM, first compound 3.16 µM
[30] = second compound 10 µM, first compound 10 µM
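Also: spheroids exposed to agents for 7 days.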

**Q.** What does the source list for `CC1OCC2(CCN(c3cnc(Sc4ccnc(N)c4Cl)c(N)n3)CC2)C1N` (stereo not given) + CNCc1ccccc1-c1csc(C(C)Nc2nc(C)nc3cc(OC)c(OC)cc23)c1?
**A.** IC50 (second compound 0.1 µM): > 10000 nM; IC50 (second compound 0.316 µM): > 10000 nM; IC50 (second compound 1 µM): 150 nM; IC50 (second compound 3.16 µM): < 31.6 nM; IC50 (second compound 10 µM): < 31.6 nM; viability, T/C [1]: 95.7%; viability, T/C [2]: 86.1%; viability, T/C [3]: 75.8%; viability, T/C [4]: 78.5%; viability, T/C [5]: 76.3%; viability, T/C [6]: 61.4%; viability, T/C [7]: 94.2%; viability, T/C [8]: 83.7%; viability, T/C [9]: 73.7%; viability, T/C [10]: 76.2%; viability, T/C [11]: 67.2%; viability, T/C [12]: 50.5%; viability, T/C [13]: 55.3%; viability, T/C [14]: 53.7%; viability, T/C [15]: 43.7%; viability, T/C [16]: 39%; viability, T/C [17]: 27.7%; viability, T/C [18]: 11.5%; viability, T/C [19]: 0.54%; viability, T/C [20]: 0.29%; viability, T/C [21]: 0.49%; viability, T/C [22]: 0.25%; viability, T/C [23]: 0.31%; viability, T/C [24]: 0.37%; viability, T/C [25]: 0.19%; viability, T/C [26]: 0.41%; viability, T/C [27]: 0.27%; viability, T/C [28]: 0.2%; viability, T/C [29]: 0.53%; viability, T/C [30]: 0.17%

**Q.** Which results are given for `Cn1nccc1Nc1nccc(-c2cc3c(s2)C(C)(C)N(CCN2CCOCC2)C3=O)n1` + CNCc1ccccc1-c1csc(C(C)Nc2nc(C)nc3cc(OC)c(OC)cc23)c1?
**A.** IC50 (second compound 0.1 µM): 2790 nM; IC50 (second compound 0.316 µM): 1180 nM; IC50 (second compound 1 µM): 77.7 nM; IC50 (second compound 3.16 µM): < 31.6 nM; IC50 (second compound 10 µM): < 31.6 nM; viability, T/C [1]: 98%; viability, T/C [2]: 85.6%; viability, T/C [3]: 71.1%; viability, T/C [4]: 61.9%; viability, T/C [5]: 48.8%; viability, T/C [6]: 37.2%; viability, T/C [7]: 86.5%; viability, T/C [8]: 80.8%; viability, T/C [9]: 64.7%; viability, T/C [10]: 53%; viability, T/C [11]: 39.4%; viability, T/C [12]: 33.2%; viability, T/C [13]: 57.4%; viability, T/C [14]: 53%; viability, T/C [15]: 25.3%; viability, T/C [16]: 25.9%; viability, T/C [17]: 7.98%; viability, T/C [18]: 3.51%; viability, T/C [19]: 0.61%; viability, T/C [20]: 0.29%; viability, T/C [21]: 0.39%; viability, T/C [22]: 0.2%; viability, T/C [23]: 0.2%; viability, T/C [24]: 0.21%; viability, T/C [25]: 0.28%; viability, T/C [26]: 0.25%; viability, T/C [27]: 0.17%; viability, T/C [28]: 0.26%; viability, T/C [29]: 1.05%; viability, T/C [30]: 0.49%
